“Also recorded” adds a separate entry of the source. Read-outs that look alike come from different tables or passages of the source. Values belong to the compound of their own block, whether it stands above or below them.
Legend:
Hsp70 = system: Hsp70; design: method as in PMID 8226982; conditions: optimal range of concentration between 100 and 150 mM; cited from earlier work
BiP NBD [1] = molecular target: T1, BiP NBD (Homo sapiens, UniProt P11021); test: NMR experiment with MABA-ATP (no E1, no E2) and kinetic fit of the MABA-ATP/MABA-ADP functional cycle; type: biochemical; design: His6 (N, cleaved yes); made in house; host or cells: E. coli BL21-(DE3)-Lemo, pET28a vector; conditions: for species: Supplementary Fig 13b
Protocol: […] After the equilibration time 2D [^13C,^1H]-HMQC spectra were recorded in interleaved mode with 1D ^1H NMR spectra. […] The same setup was used for the alternative experiments by including or excluding E1 and/or E2. When E1 was not included, the ratio of the ATP/ADP NMR signals was used to monitor their relative concentrations.
(§1) (1 picture or pasted object on this page, not shown here)

BiP NBD [2] = molecular target: T1, BiP NBD; test: Equilibrium 2D methyl-TROSY NMR fingerprint spectra with ligands (ATP analogs, calcium); type: binding; design: His6 (N, cleaved yes); made in house; host or cells: E. coli BL21-(DE3)-Lemo, pET28a vector; conditions: 2D methyl-TROSY compared with in-cyclo states
Protocol: First, we probed calcium binding to ADP-bound NBD by NMR equilibrium experiments. […] (Supplementary Fig. 15d). […] (Supplementary Fig. 16).
AMPPNP (adenylyl imidodiphosphate; Jena-bioscience), AMPPCP (adenylyl methylenediphosphate; Jena-bioscience) and ATP-γ-S (adenosine 5’-(gamma-thiotriphosphate; Jena-bioscience) were dissolved in the HKM reaction buffer (25 mM HEPES, pH 7.5, 150 mM KCl and 10 mM MgCl2) at a concentration of 50 mM directly before to be mixed with the BiP NBD sample. Samples were prepared fresh before each use to minimize the known instability of these analogs that undergo slow hydrolysis in solution.
Supplementary Figure 7. Analysis of the BiP NBD ATP-bound state. a, Combined methyl chemical shift differences between the APD·Pi-bound and the ATP-bound state of BiP NBD in-cyclo. The magnitude of 1 and 1.5 SDs are indicated by an orange and a red line, respectively. b, Overlay of 9 crystal structures of BiP NBD in presence of different nucleotides (colored sticks). c, Backbone root means square deviation (RMSD - Å) between the structures shown in (b) and the NBD apo state (PDB 3LDN). d, 2D [13C,1H]-TROSY spectrum of methyl-labeled BiP NBD in equilibrium with the ATP analogs AMPPNP (green), AMPPCP (orange) or ATP-γ-S (yellow), overlayed with the spectrum in-cyclo (pink).
State- and sequence-specific resonance assignments are indicated for the ADP-bound (light blue), ADP·Pi-bound (dark blue) and the ATP-bound (red) states in-cyclo.
as §1
Supplementary Figure 15. Mapping of calcium binding to BiP NBD. a, Selected details from published structures of BiP. From left to right: yeast BiP(NBD)-Mg2+-ADP (PDB 3QFU), human BiP(NBD)-Mg2+- ADP·Pi (PDB 5EVZ), human BiP(NBD)-Ca2+-ADP (PDB 6ZYH). b, Selected sections of 2D [13C,1H]-methyl-TROSY spectra of residue val50cg1 or Ile52cd1 for the equilibrium experiments of NBD apo (grey), NBD with 5 mM Pi (green), NBD with 1 mM ADP (light blue), NBD with 1 mM ADP·Pi (dark blue), NBD with 1 mM ADP-Ca2+ (dark-pink).and NBD with 3.3 mM calcium ([Mg2+]/[Ca2+]=3) (light-pink). c, Combined methyl chemical shift differences between the BiP NBD APD and the ADP-Ca2+-bound state. The magnitude of 1 and 1.5 SDs are indicated by a light blue and a dark blue line. d, Structure of NBD in […]
the ADP-Ca-bound state (PDB 6ZYH).

BiP = conditions: NBD·MABA-ATP ⇌ NBD + MABA-ATP; cited from earlier work
BiP NBD [3] = molecular target: T1, BiP NBD
Protocol: We next wanted to compare our determined kinetic rates of ADP dissociation, koff2 and koff5 , with a standard assay in the Hsp70 field that measures ADP lifetimes by ADP displacement.
The dissociation rate constants (koff) were determined by fitting the data to a one phase exponential function using a python script. […]
The red line corresponds to the mono-exponential fit of the data. […]
from 0.001 to 10 mM, in the absence of Pi (pink circles) and with 0.5 mM Pi (blue circles). Data points represent the mean for three independent experiments and the error bar represents the standard deviation. The half maximal inhibitory concentration (IC50) of Ca was calculated from three

[4] = MABA-ATP instead of ATP, reactions 1MABA, 2MABA, 3

T1 sequence (P11021 19-406): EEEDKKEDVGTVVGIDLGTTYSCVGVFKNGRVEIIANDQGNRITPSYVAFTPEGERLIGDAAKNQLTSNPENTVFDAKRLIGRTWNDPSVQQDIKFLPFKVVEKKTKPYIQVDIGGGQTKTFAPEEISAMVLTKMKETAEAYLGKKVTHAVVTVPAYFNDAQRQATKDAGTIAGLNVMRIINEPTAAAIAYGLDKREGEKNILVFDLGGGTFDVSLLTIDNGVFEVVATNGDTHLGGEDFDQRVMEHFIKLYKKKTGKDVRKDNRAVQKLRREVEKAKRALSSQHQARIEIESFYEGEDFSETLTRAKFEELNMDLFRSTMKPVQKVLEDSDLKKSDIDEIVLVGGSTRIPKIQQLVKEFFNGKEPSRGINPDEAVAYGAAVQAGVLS

SMILES: [K+] [potassium]
- increase of the Hsp70 ATP hydrolysis activity (Hsp70): 5 fold

SMILES: Nc1ncnc2c1ncn2[C@@H]1O[C@H](COP(=O)(O)OP(=O)(O)CP(=O)(O)O)[C@@H](O)[C@H]1O [AMPPCP, adenylyl methylenediphosphate]
- NMR fingerprint of BiP NBD with the ligand (BiP NBD [2]): resemble the ADP·Pi-bound state rather than the ATP-bound state

SMILES: Nc1ncnc2c1ncn2[C@@H]1O[C@H](COP(=O)(O)OP(=O)(O)NP(=O)(O)O)[C@@H](O)[C@H]1O [AMPPNP, adenylyl imidodiphosphate]
- NMR fingerprint of BiP NBD with the ligand (BiP NBD [2]): resemble the ADP·Pi-bound state rather than the ATP-bound state

SMILES: Nc1ncnc2c1ncn2[C@@H]1O[C@H](CO[P@](=O)(O)O[P@](=O)(O)O[P@@](=O)(O)S)[C@@H](O)[C@H]1O [ATP-γ-S, adenosine 5’-(gamma-thiotriphosphate)]
- NMR fingerprint of BiP NBD with the ligand (BiP NBD [2]): resemble the ADP·Pi-bound state rather than the ATP-bound state; also recorded: showed a peak splitting, indicating the formation of a heterogenous mix of conformations

SMILES: [Ca+2] [Ca2+]
- Supplementary Fig 16a time trace signal (BiP NBD [3]; [Ca2+] 0.1 μM, time 148.582 sec): 0.000
- Supplementary Fig 16a time trace signal (BiP NBD [3]; [Ca2+] 0.5 μM, time 148.582 sec): 0.000
- Supplementary Fig 16a time trace signal (BiP NBD [3]; [Ca2+] 1 μM, time 148.582 sec): 0.000
- Supplementary Fig 16a time trace signal (BiP NBD [3]; [Ca2+] 5 μM, time 148.582 sec): 0.000
- Supplementary Fig 16a time trace signal (BiP NBD [3]; [Ca2+] 10 μM, time 148.582 sec): 0.000
- Supplementary Fig 16a time trace signal (BiP NBD [3]; [Ca2+] 25 μM, time 148.582 sec): 0.000
- Supplementary Fig 16a time trace signal (BiP NBD [3]; [Ca2+] 50 μM, time 148.582 sec): 0.000
- Supplementary Fig 16a time trace signal (BiP NBD [3]; [Ca2+] 75 μM, time 148.582 sec): 0.002
- Supplementary Fig 16a time trace signal (BiP NBD [3]; [Ca2+] 100 μM, time 148.582 sec): 0.000
- Supplementary Fig 16a time trace signal (BiP NBD [3]; [Ca2+] 125 μM, time 148.582 sec): 0.000
- Supplementary Fig 16a time trace signal (BiP NBD [3]; [Ca2+] 150 μM, time 148.582 sec): 0.005
- Supplementary Fig 16a time trace signal (BiP NBD [3]; [Ca2+] 175 μM, time 148.582 sec): 0.003
- Supplementary Fig 16a time trace signal (BiP NBD [3]; [Ca2+] 200 μM, time 148.582 sec): 0.000
- Supplementary Fig 16a time trace signal (BiP NBD [3]; [Ca2+] 300 μM, time 148.582 sec): 0.003
- Supplementary Fig 16a time trace signal (BiP NBD [3]; [Ca2+] 400 μM, time 148.582 sec): 0.002
- Supplementary Fig 16a time trace signal (BiP NBD [3]; [Ca2+] 500 μM, time 148.582 sec): 0.002
- Supplementary Fig 16a time trace signal (BiP NBD [3]; [Ca2+] 1000 μM, time 148.582 sec): 0.000
- Supplementary Fig 16a time trace signal (BiP NBD [3]; [Ca2+] 5000 μM, time 148.582 sec): 0.001
- Supplementary Fig 16a time trace signal (BiP NBD [3]; [Pi] 0.5 mM, [Ca2+] 0.1 μM, time 148.846 sec): 0.000
- Supplementary Fig 16a time trace signal (BiP NBD [3]; [Pi] 0.5 mM, [Ca2+] 0.5 μM, time 148.846 sec): 0.004
- Supplementary Fig 16a time trace signal (BiP NBD [3]; [Pi] 0.5 mM, [Ca2+] 1 μM, time 148.846 sec): 0.005
- Supplementary Fig 16a time trace signal (BiP NBD [3]; [Pi] 0.5 mM, [Ca2+] 5 μM, time 148.846 sec): 0.000
- Supplementary Fig 16a time trace signal (BiP NBD [3]; [Pi] 0.5 mM, [Ca2+] 10 μM, time 148.846 sec): 0.000
- Supplementary Fig 16a time trace signal (BiP NBD [3]; [Pi] 0.5 mM, [Ca2+] 50 μM, time 148.846 sec): 0.004
- Supplementary Fig 16a time trace signal (BiP NBD [3]; [Pi] 0.5 mM, [Ca2+] 100 μM, time 148.846 sec): 0.003
- Supplementary Fig 16a time trace signal (BiP NBD [3]; [Pi] 0.5 mM, [Ca2+] 500 μM, time 148.846 sec): 0.007
- Supplementary Fig 16a time trace signal (BiP NBD [3]; [Pi] 0.5 mM, [Ca2+] 1000 μM, time 148.846 sec): 0.010
- Supplementary Fig 16a time trace signal (BiP NBD [3]; [Pi] 0.5 mM, [Ca2+] 5000 μM, time 148.846 sec): 0.000

Second part, led by results:

- species (BiP NBD [1]; time 4 min): 350 µM
- species (BiP NBD [1]; time 10 min): 508 µM
- species (BiP NBD [1]; time 16 min): 626 µM
- species (BiP NBD [1]; time 22 min): 712 µM
- species (BiP NBD [1]; time 28 min): 800 µM
- species (BiP NBD [1]; time 34 min): 840 µM
- species (BiP NBD [1]; time 40 min): 889 µM
- species (BiP NBD [1]; time 46 min): 907 µM
- species (BiP NBD [1]; time 52 min): 929 µM
- species (BiP NBD [1]; time 58 min): 924 µM
- species (BiP NBD [1]; time 64 min): 932 µM
SMILES: CNc1ccccc1C(=O)NCCCCNc1nc2c(N)ncnc2n1[C@@H]1O[C@H](COP(=O)(O)OP(=O)(O)O)[C@@H](O)[C@H]1O [MABAADP]

- species (BiP NBD [1]; time 4 min): 649 µM
- species (BiP NBD [1]; time 10 min): 492.3 µM
- species (BiP NBD [1]; time 16 min): 374.2 µM
- species (BiP NBD [1]; time 22 min): 287.7 µM
- species (BiP NBD [1]; time 28 min): 199.6 µM
- species (BiP NBD [1]; time 34 min): 160.1 µM
- species (BiP NBD [1]; time 40 min): 111.4 µM
- species (BiP NBD [1]; time 46 min): 92.6 µM
- species (BiP NBD [1]; time 52 min): 70.6 µM
- species (BiP NBD [1]; time 58 min): 65.7 µM
- species (BiP NBD [1]; time 64 min): 67.7 µM
SMILES: CNc1ccccc1C(=O)NCCCCNc1nc2c(N)ncnc2n1[C@@H]1O[C@H](COP(=O)(O)OP(=O)(O)OP(=O)(O)O)[C@@H](O)[C@H]1O [MABAATP]

- koff (BiP NBD [1]; [4]): 0.035 ± 0.008 s⁻¹
- kon (BiP NBD [1]; [4]): 37000 ± 6000 M⁻¹ s⁻¹
- Kd (BiP NBD [1]; MABA-ATP instead of ATP, reactions 1MABA, 2MABA, 3: release to apo NBD, T = 37°C): 950 ± 100 nM
- kcat (BiP NBD [1]; NBD·MABA-ATP → NBD·MABA-ADP·Pi): 0.036 s⁻¹
SMILES: CNc1ccccc1C(=O)NCCCCNc1nc2c(N)ncnc2n1[C@@H]1O[C@H](COP(=O)(O)OP(=O)(O)OP(=O)(O)O)[C@@H](O)[C@H]1O [MABA-ATP, 8-[(4-Amino)butyl]-amino-ATP-MAN]
- Kd (BiP): 1000 nM
- koff1 (MABA-ATP) (BiP): 0.031 s⁻¹
- kon (BiP): 32000 M⁻¹ s⁻¹

Source: paper PMC12126525, “Mechanism of ATP hydrolysis in the Hsp70 BiP nucleotide-binding domain” (Nature Communications, 2025)
